Patent publication US10881729B2, “Vaccine adjuvant compositions” (CHILDREN'S MEDICAL CENTER CORPORATION, priority 2014, dated 2021)

Key:
[1] = cited from earlier work
newborn MoDCs = assay: TNF-α ELISA of supernatants of stimulated newborn MoDCs; type: cell-based, human; conditions: for TNF production in response to single TLR agonist, newborn compared to adult MoDCs: newborn vs adult MoDCs, FIG. 2
Experimental: Isolated monocytes were seeded in 75 cm^2 tissue culture dishes for 5 days at 37° C. in a humidified incubator at 5% CO2 with 10^6 cells/ml medium. Medium consisted of RPMI 1640 medium with L-glutamine (GIBCO—LIFE TECHNOLOGIES, Carlsbad, Calif., USA) supplemented with 1% Penicillin-Streptomycin-Glutamine (PSG) (Invitrogen—Life Technologies, Carlsbad, Calif., USA) and 10% AP. This was supplemented with recombinant human (rh) IL-4 and rhGM-CSF (50 ng/ml and 100 ng/ml, respectively; R&D Systems, Minneapolis, Minn., USA). Additional fresh media and cytokines were provided on day 3 of incubation.
After 5 days, immature MoDCs were harvested by gently pipetting only the loosely adherent fraction and re-plated (10^5 cells/well) in 96-well U-bottom plates in the presence or absence of TLRAs, and/or CLRAs, and/or sterile DPBS. This MoDC array was then incubated for 18-24 hours at 37° C. in a humidified incubator at 5% CO2. After this stimulation MoDCs were harvested and processed for further functional assays. (FIG. 2).
Supernatants from MoDCs (GCI-DCs) stimulated for 18 hours in a humidified incubator (37° C., 5% CO2) with TLRAs, and/or CLRAs were analyzed for TNF-α production. For this, a human TNF enzyme-linked immunosorbent assay (ELISA) kit was used, and assay was performed according to manufacturer's instruction. (BD Biosciences, BD Biosciences, San Jose, Calif., USA). Results were read on a Versamax microplate reader with SoftMax Pro Version 5 (both from Molecular Devices, Sunnyville, Calif., USA).
The inventors further evaluated the ability of these two combinations of agonists to activate newborn MoDCs by establishing concentration-response curves and by investigating whether the enhancement in TNF secretion can be observed with similar agonists that activate the same receptors. In addition, the concentration-response curves were used to mathematically assess whether the observed enhancement by combining agonists is equal to the sum of the effects observed with individual agonists (i.e., was additive) or if these agonists activate the newborn cells synergistically. A modification of the Loewe definition of additivity was applied to determine whether the agonists act synergistically (D<1), additively (D=1) or antagonistically (D>1), where D=[Ac]/[Ae]+[Bc]/[Be], and [Ac] and [Bc] are the concentrations of compound A and B used in the dual (combined) stimulation and [Ae] and [Be] are the concentrations of A and B that induce an equal amount of TNF secretion alone.

newborn and adult MoDCs = assay: Gene expression by quantitative RT-PCR array, MPLA-stimulated newborn versus adult MoDCs; type: cell-based, human
Experimental: Total ribonucleic acid (RNA) of newborn and adult MoDCs (GCI-DCs and TC-DCs) was isolated with the miRNeasy kit, according to manufacturer's instructions (QIAGEN®, Inc., Valencia, Calif., USA) Total RNA from both un-stimulated cells and cells stimulated with 1 μg/ml MPLA was isolated. RNA quality was analyzed for quality and quantity by using a NanoDrop 1000 spectrophotometer (Thermo Scientific, Wilmington, Del., USA). Complementary deoxyribonucleic acid (cDNA) was prepared from total RNA from each sample with a miScript II RT Kit, according to manufacturer's instructions (QIAGEN®, Inc., Valencia, Calif., USA). cDNA was quantified on a PAHS-052Z plate (QIAGEN®, Inc., Valencia, Calif., USA). Quantitative real time-polymerase chain reaction (RT-PCR) was run on a 7300 real time PCR system (APPLIED BIOSYSTEMS®—Life Technologies, Life Technologies, Carlsbad, Calif., USA).

CCOCc1nc2c(N)nc3ccccc3c2[nH]1 [CL097, 2-(ethoxymethyl)-1 H-imidazo[4,5-c]quinolin-4-amine]
water solubility [1]: highly water-soluble

Pam3Cys
TNF production in response to single TLR agonist, newborn compared to adult MoDCs (newborn MoDCs): less TNF

Polyinosinic:polycytidylic acid [Poly I:C]
TNF production in response to single TLR agonist, newborn compared to adult MoDCs (newborn MoDCs): less TNF

glycopyranosyl lipid A [GLA]
synergy in TNF production with the partner agonist named in the sentence (newborn MoDCs; newborn MoDCs, VTX-294 for R848 (with TDB), GLA for MPLA (with Zymosan), BGP for Zymosan, Zymosan with MPLA or GLA): also present

monophosphoryl lipid A [MPLA]
TNF production in response to single TLR agonist, newborn compared to adult MoDCs (newborn MoDCs): less TNF
TNF gene expression, adults compared to newborns (newborn and adult MoDCs; MPLA 1 μg/ml, 24 hours): 2 fold
IL-6 and IL-10, newborn MoDCs compared to adult MoDCs (newborn and adult MoDCs; MPLA treatment, FIG. 1): more
expression levels of IRF7 and IRAK1, adult MoDCs compared to newborn (newborn and adult MoDCs; MPLA treatment, FIG. 1): higher
IL6 and CXCL-8 (IL8) gene expression, newborn MoDCs compared to adult MoDCs (newborn and adult MoDCs; after treatment with MPLA): greater
expression of IRF7, IRAK1 and NFKB1, adult MoDCs compared to newborn (newborn and adult MoDCs; after treatment with MPLA): greater
